Measurements taken from patent publication US20250000924A1, “Composition for the prevention, improvement or treatment of allergic disease comprising an extract of Taxus cuspidata as an active ingredient” (KOREA INSTITUTE OF SCIENCE AND TECHNOLOGY, priority 2023, published 2025).

tested on: mast cells; assay: Anti-allergic effect of active ingredients derived from Taxus cuspidata extract (degranulation, PGE2, TNF-α, IL-4 overall); type: cell-based, rat; conditions: overall statement on FIGS. 13 to 16; compounds at 20 μM
Description: Mast cells were cultured in the same manner as in Example 2 above, and then treated with the nine compounds isolated in Example 11 above at a concentration of 20 μM, respectively.
Mast cells were cultured in the same manner as in Example 3 above, and then treated with the nine compounds isolated in Example 11 above at a concentration of 20 μM, respectively.
• treated with the 9 compounds isolated in Example 11 at a concentration of 20 μM, respectively.
Mast cells were cultured in the same manner as in Example 5 above, and then treated with the nine compounds isolated in Example 11 above at a concentration of 20 μM, respectively.

Structure (SMILES)	anti-allergy effects
OCCCc1ccc(O)cc1 [3-(4-Hydroxyphenyl)-1-propanol]	excellent
O=Cc1ccc(O)cc1 [4-hydroxyl benzandehyde]	excellent
COc1cc(O)cc(OC)c1 [Taxicatigenin]	excellent
